Reference: ChEMBL document CHEMBL2401622, “Synthesis and in vitro evaluation of [18F]BMS-754807: a potential PET ligand for IGF-1R” (Bioorg Med Chem Lett, 2013)

Assays:
Details in all cases: 0.0001 µM; call rule not given here
[1] = Drug uptake in human grade 4 glioblastoma at 0.1 nM after 1 hr by phosphor imager autoradiography; format: ADME
[2] = Drug uptake in human breast tumor at 0.1 nM after 1 hr by phosphor imager autoradiography; format: ADME, tissue-based
[3] = Drug uptake in human pancreatic tumor at 0.1 nM after 1 hr by phosphor imager autoradiography; format: ADME

Drug uptake [1]: Active | Drug uptake [2]: Active | Drug uptake [3]: Active
Compound: C[C@@]1(C(=O)Nc2ccc([18F])nc2)CCCN1c1nc(Nc2cc(C3CC3)[nH]n2)c2cccn2n1
